The values that follow come from paper PMC1903359, “Engineering of PA-IIL lectin from Pseudomonas aeruginosa – Unravelling the role of the specificity loop for sugar preference” (BMC Structural Biology, 2007).

In general, Kd refers to the equilibrium constant for the complex coming apart. In general, stoichiometry N refers to the number of molecules, sites or subunits per partner or assembly.

Where two headings read alike, the source gives them in different places.

In one test the test system is RS-IIL. Details: method as in PMID 16768446. Conditions: cited from earlier work.
For the next test, the system named is PA-IIL wild type. Conditions: cited from earlier work.
A further test has as its target PA-IIL S23A (Pseudomonas aeruginosa, UniProt Q9HYN5, S24A). As to the kind of experiment: ITC binding of monosaccharides to PA-IIL mutant S23A. Conditions: ITC at 25°C.
The target in the next test is PA-IIL S22A (Pseudomonas aeruginosa, UniProt Q9HYN5, S23A). As to the kind of experiment: ITC binding of monosaccharides to PA-IIL mutant S22A. Conditions: for -TΔS: calculated from ΔG and ΔH.
Another test deals with PA-IIL G24N (Pseudomonas aeruginosa, UniProt Q9HYN5, G25N). As to the kind of experiment: ITC binding of monosaccharides to PA-IIL mutant G24N. To be noted: for ΔH / -TΔS: ITC at 25°C; for -TΔS: calculated from ΔG and ΔH.
In test [1] the target is PA-IIL lectin from Pseudomonas aeruginosa, mutant G24N (Pseudomonas aeruginosa). As to the kind of experiment: crystal structure; mutants co-crystallised with fucose (hanging drop), soaked 24 h in 10 mM Me-α-D-Man or Me-α-L-Fuc; tetramer in the asymmetric unit.
For test [2], the target named is PA-IIL lectin from Pseudomonas aeruginosa, mutant S22A (Pseudomonas aeruginosa). The description is as above.
The target of test [3] is PA-IIL lectin from Pseudomonas aeruginosa, mutant S23A (Pseudomonas aeruginosa). The description is as above.
The mark [4] stands for this setting: PA-IIL wild type, ITC at 25°C, ref Sabin, C. et al, 2006 [14].
Setting [5] is: ITC at 25°C, comparison data, Figure 7 gives ref 18.

In the case of `CO[C@@H]1O[C@@H](C)[C@@H](O)[C@@H](O)[C@@H]1O` [Me-α-L-Fuc, methyl α-L-fucopyranoside], in the test on RS-IIL (footnote b: value < 10^4 M^-1), the KA was less than 10000 M⁻¹. In addition, on RS-IIL (footnote b), the Kd was greater than 100000 nM. For the same compound, in the test on PA-IIL wild type (setting [4]), the “-TΔS” value is recorded as 4.9 (± 1.0) kJ/mol, the KA is listed as 235 (± 8.0) ×10^4M^-1, the Kd was 430 nM and the ΔG is reported as -36.4 (± 0.1) kJ/mol. For the same compound, the ΔH in the test on PA-IIL wild type (setting [4]) is -41.3 (± 1.0) kJ/mol. Moreover, in the test with PA-IIL wild type (native (wild type) PA-IIL, sign as TΔS), the “entropic contribution TΔS” value is -1.17 kcal/mol.

On to `CO[C@@H]1O[C@@H](CO)[C@@H](O)[C@@H](O)[C@@H]1O` [Me-α-L-Gal, methyl α-L-galactopyranoside], for which the ΔH at PA-IIL S23A is listed as -26.8 (± 1.7) kJ/mol; at PA-IIL S22A (S22A, ITC at 25°C) it was -19.2 (± 0.2) kJ/mol; at PA-IIL G24N, -18.7 (± 0.3) kJ/mol; in the test on PA-IIL wild type (setting [4]) it was -31.5 (± 0.6) kJ/mol. Moreover, the “-TΔS” value is -8.3 (± 0.3) kJ/mol on PA-IIL S22A (S22A, ITC at 25°C); -15.0 (± 0.9) kJ/mol at PA-IIL G24N; -2.3 (± 0.7) kJ/mol in the test on PA-IIL wild type (setting [4]). Moreover, the KA with PA-IIL wild type (setting [4]) was 85.0 (± 5.0) ×10^4M^-1. Further, the Kd at PA-IIL wild type (setting [4]) was 1170 nM.

On to `CO[C@H]1O[C@H](CO)[C@@H](O)[C@H](O)[C@@H]1O` [Me-β-D-Man, methyl α-D-mannopyranoside], for which the ΔH on PA-IIL S23A was -16.7 (± 2.3) kJ/mol. Also, the KA at PA-IIL S23A (0.1 M Tris-HCl, 30 μM CaCl2, pH 7.5) is on record as 1.91 (± 0.33) ×10^4M^-1. The “-TΔS” value at PA-IIL S23A (calculated from ΔG and ΔH) is given as -7.7 (± 2.7) kJ/mol. At PA-IIL S22A (S22A versus wild type PA-IIL), the “times higher affinity of the mutant compared to the wild type protein” value amounted to 25 times and the “total difference in free energy, mutant versus wild type” value was -1.91 kcal/mol. The “-TΔS” value at PA-IIL S22A (S22A, ITC at 25°C) was -7.4 (± 0.7) kJ/mol. In addition, at PA-IIL S22A (S22A, sign as TΔS), the “favourable entropic contribution TΔS” value worked out at 1.77 kcal/mol. In the test on RS-IIL (setting [5]), the “-TΔS” value was -13.0 (± 0.2) kJ/mol, the KA is recorded as 438 (± 2.0) ×10^4M^-1, the Kd was 230 nM and the ΔG was -37.9 (± 0.1) kJ/mol. Besides, on PA-IIL G24N, the ΔH was -27.1 (± 0.8) kJ/mol and the “-TΔS” value was 2.1 (± 0.9) kJ/mol. For the same compound, the “entropic contribution as share of the total Gibbs energy change” value at PA-IIL G24N (unfavourable entropic contribution) was 8%.

On to “PA-IIL lectin from Pseudomonas aeruginosa, mutant G24N (natural protein)”, for which, in test [1], the stoichiometry N was 4.

In test [2], “PA-IIL lectin from Pseudomonas aeruginosa, mutant S22A (natural protein)” came in with a stoichiometry N of 4.

In turn, “PA-IIL lectin from Pseudomonas aeruginosa, mutant S23A (natural protein)” showed a stoichiometry N in test [3] of 4.
